# Test results taken from ChEMBL document CHEMBL4364241, “Developments in the anticancer activity of structurally modified curcumin: An up-to-date review” (Eur J Med Chem, 2019).
# Key:
# [1] = system: HeLa; experiment: Cytotoxicity against human HeLa Cells; assay type: functional, cell-based
# [2] = system: MCF7; experiment: Cytotoxicity against human MCF7 cells; assay type: functional, cell-based
# [3] = system: MDA-MB-231; experiment: Cytotoxicity against human MDA-MB-231 cells; assay type: functional, cell-based
# [4] = Anticancer activity against human LX2 cells after 72 hrs by MTT assay; assay type: functional, cell-based; settings: LX-2, 72 h
# [5] = system: SMMC-7721; experiment: Anticancer activity against human SMMC7721 cells after 72 hrs by MTT assay; assay type: functional, cell-based; settings: SMMC-7721, 72 h
# [6] = system: MDA-MB-231; experiment: Anticancer activity against human MDA-MB-231 cells after 72 hrs by MTT assay; assay type: functional, cell-based; settings: MDA-MB-231, 72 h
# [7] = system: HepG2; experiment: Cytotoxicity against human HepG2 Cells after 72 hrs by MTT assay; assay type: functional, cell-based; settings: HepG2, 72 h
# [8] = system: HT-29; experiment: Cytotoxicity against human HT-29 Cells after 72 hrs by MTT assay; assay type: functional, cell-based; settings: HT-29, 72 h
# [9] = system: EA.hy 926; experiment: Cytotoxicity against human EAhy926 Cells after 72 hrs by MTT assay; assay type: functional, cell-based; settings: EA.hy 926, 72 h
# [10] = system: Caco-2; experiment: Cytotoxicity against human Caco2 Cells after 72 hrs by MTT assay; assay type: functional, cell-based; settings: Caco-2, 72 h
# [11] = system: CHO-K1; experiment: Cytotoxicity against […] Cells after 72 hrs by MTT assay; assay type: functional, cell-based; settings: Cricetulus griseus, CHO-K1, 72 h
# [12] = system: MCF7; experiment: Induction of apoptosis in human MCF7 cells; assay type: functional, cell-based
# [13] = system: HCT-116; experiment: Antitumor activity against human HCT116 cells after 72 hrs by FMCA method; assay type: functional, cell-based; settings: HCT-116, 72 h, pooled result: one value given for 5 cell lines, strains, targets or settings
# [14] = system: AGS; experiment: Cytotoxicity against human AGS Cells; assay type: functional, cell-based
# [15] = system: HepG2; experiment: Cytotoxicity against human HepG2 Cells; assay type: functional, cell-based
# [16] = system: HCT-116; experiment: Cytotoxicity against human HCT116 Cells; assay type: functional, cell-based
# [17] = system: SK-OV-3; experiment: Cytotoxicity against human SKOV3 Cells after 48 hrs by Cell Titer Blue assay; assay type: functional, cell-based; settings: SK-OV-3, 48 h
# [18] = Cytotoxicity against human GBM4 Cells 48 hrs by MTS assay; assay type: functional
# [19] = system: U-251; experiment: Cytotoxicity against human U251MG cells after 48 hrs by MTS assay; assay type: functional, cell-based; settings: U-251, 48 h
# [20] = system: U373 MG; experiment: Cytotoxicity against human U373MG Cells 48 hrs by MTS assay; assay type: functional, cell-based, U-373MG ATCC
# [21] = Cytotoxicity against human GBM3 Cells 48 hrs by MTS assay; assay type: functional; settings: GBM3, 48 h
# [22] = system: U-87 MG; experiment: Cytotoxicity against human U87MG Cells 48 hrs by MTS assay; assay type: functional, cell-based, U-87MG ATCC
# [23] = Cytotoxicity against human GBM5 Cells 48 hrs by MTS assay; assay type: functional
# [24] = Cytotoxicity against human GBM1 Cells 48 hrs by MTS assay; assay type: functional; settings: GBM1, 48 h
# [25] = Cytotoxicity against human GBM6 Cells 48 hrs by MTS assay; assay type: functional; settings: GBM6, 48 h
# [26] = Cytotoxicity against human GBM2 Cells 48 hrs by MTS assay; assay type: functional; settings: GBM2, 48 h
# [27] = system: A549; experiment: Cytotoxicity against human A549 Cells after 24 hrs by MTT assay; assay type: functional, cell-based; settings: A549, 24 h
# [28] = system: HT-29; experiment: Cytotoxicity against human HT-29 Cells; assay type: functional, cell-based
# [29] = system: SW-620; experiment: Cytotoxicity against human SW620 Cells; assay type: functional, cell-based
# [30] = system: MCF7; experiment: Cytotoxicity against human MCF7 Cells after 48 hrs by MTS assay; assay type: functional, cell-based; settings: MCF7, 48 h
# [31] = Cytotoxicity against human CCD-1059SK Cells after 48 hrs by MTS assay; assay type: functional
# [32] = system: PC-3; experiment: Cytotoxicity against human PC3 cells by MTT assay; assay type: functional, cell-based
# [33] = system: MIA PaCa-2; experiment: Cytotoxicity against human MIAPaCa2 cells by MTT assay; assay type: functional, cell-based
# [34] = system: HT-29; experiment: Cytotoxicity against human HT-29 cells by MTT assay; assay type: functional, cell-based
# [35] = system: PANC-1; experiment: Cytotoxicity against human PANC1 cells by MTT assay; assay type: functional, cell-based
# [36] = system: NCI-H460; experiment: Cytotoxicity against human H460 cells by MTT assay; assay type: functional, cell-based
# [37] = system: A549; experiment: Cytotoxicity against human A549 Cells by MTT assay; assay type: functional, cell-based
# [38] = system: MCF7; experiment: Cytotoxicity against human MCF7 cells by MTT assay; assay type: functional, cell-based
# [39] = system: AGS; experiment: Cytotoxicity against human AGS Cells by MTT assay; assay type: functional, cell-based
# [40] = system: HSC-4; experiment: Cytotoxicity against human HSC4 cells; assay type: functional, cell-based
# [41] = system: HSC-3; experiment: Cytotoxicity against human HSC3 cells; assay type: functional, cell-based
# [42] = system: HL-60; experiment: Cytotoxicity against human HL60 cells; assay type: functional, cell-based
# [43] = system: HSC-2; experiment: Cytotoxicity against human HSC2 cells; assay type: functional, cell-based
# [44] = system: PC-3; experiment: Cytotoxicity against human PC3 cells; assay type: functional, cell-based
# [45] = system: RWPE-1; experiment: Cytotoxicity against human RWPE1 cells; assay type: functional, cell-based
# [46] = system: NCI-H1299; experiment: Cytotoxicity against human H1299 cells; assay type: functional, cell-based
# [47] = system: BXPC-3; experiment: Cytotoxicity against human BxPC3 cells; assay type: functional, cell-based
# [48] = Cytotoxicity against mitoxantrone resistant […] cells expressing BCRP after 15 mins by fluorescence assay; assay type: functional, cell-based; settings: Canis lupus familiaris, MDCK2, 0.25 h
# [49] = system: A549; experiment: Cytotoxicity against human A549 Cells after 24 to 48 hrs by MTT assay; assay type: functional, cell-based
# [50] = system: SW480; experiment: Cytotoxicity against human SW480 Cells after 24 to 48 hrs by MTT assay; assay type: functional, cell-based
# [51] = system: K562; experiment: Cytotoxicity against human K562 Cells after 24 to 48 hrs by MTT assay; assay type: functional, cell-based
# [52] = system: CT26; experiment: Cytotoxicity against mouse CT26 cells; assay type: functional, cell-based
# [53] = system: SGC-7901; experiment: Antiproliferative activity against human SGC7901 cells after 24 hrs by MTT assay; assay type: functional, cell-based; settings: SGC-7901, 24 h
# [54] = system: PC-3; experiment: Anticancer activity against human PC3 cells; assay type: functional, cell-based
# [55] = system: MGC-803; experiment: Antiproliferative activity against human MGC803 cells after 24 hrs by MTT assay; assay type: functional, cell-based; settings: MGC-803, 24 h
# [56] = system: DU-145; experiment: Anticancer activity against human DU145 cells; assay type: functional, cell-based
# [57] = system: BGC-823; experiment: Antiproliferative activity against human BGC823 cells after 24 hrs by MTT assay; assay type: functional, cell-based; settings: BGC-823, 24 h
smiles,measurement,setting,value
COc1ccc(OC)c(/C=C/C(=O)/C=C/c2cc(OC)ccc2OC)c1,IC50,[1],14000 nM
same,IC50,[2],3020 nM
same,IC50,[3],1520 nM
COc1cc(/C=C/C(=O)CC(=O)/C=C/c2ccc(OC(=O)C(N)CC[Se]C)c(OC)c2)ccc1O (stereo unspecified),IC50,[4],620 nM
same,IC50,[5],180 nM
same,IC50,[6],520 nM
same,IC50,[7],310 nM
O=C(/C=C(O)/C=C/c1c[nH]c2ccccc12)/C=C/c1c[nH]c2ccccc12,IC50,[8],11500 nM
same,IC50,[9],11700 nM
same,IC50,[7],10000 nM
same,IC50,[10],3300 nM
same,IC50,[11],7900 nM
COc1cc(/C=C/C(=O)C(=CC2CCN(C(=O)OC(C)(C)C)CC2)C(=O)/C=C/c2ccc(O)c(OC)c2)ccc1O,IC50,[12],1500 nM
CCCC(=O)Oc1ccc(/C=C2\CN(C(C)=O)C/C(=C\c3ccc(OC(=O)CCC)c(OC)c3)C2=O)cc1OC,IC50,[13],246 nM
COc1cc(/C=C/C(=O)CC(=O)/C=C/c2ccc(OC3O[C@H](CO)[C@@H](O)[C@H](O)[C@H]3O)c(OC)c2)ccc1O (stereo partly specified),IC50,[14],5860 nM
same,IC50,[15],18600 nM
same,IC50,[1],12500 nM
same,IC50,[16],5400 nM
CCCOc1ccc(/C=C2\CN(C(=S)c3ccccc3)C/C(=C\c3ccc(OCCC)c(OC)c3)C2=O)cc1OC,IC50,[13],207 nM
COc1ccc(/C=C/C(=O)/C=C(O)/C=C/c2ccc(OC)c(OC)c2)cc1OC,IC50,[17],3510 nM
C=CC(=O)NC(c1ccccc1)C(C(=O)/C=C/c1cccc(O)c1)C(=O)/C=C/c1cccc(O)c1 (stereo unspecified),IC50,[18],1260 nM
same,IC50,[19],330 nM
same,IC50,[20],> 5000 nM
same,IC50,[21],1450 nM
same,IC50,[22],380 nM
same,IC50,[23],920 nM
same,IC50,[24],870 nM
same,IC50,[25],2320 nM
same,IC50,[26],1430 nM
O=C(/C=C/c1ccccc1C(F)(F)F)/C=C/c1ccccc1C(F)(F)F,IC50,[27],3100 nM
"O=C(/C=C(\O)c1ccccc1)c1ccccc1O [2',beta-DIHYDROXYCHALCONE]",IC50,[28],7500 nM
same,IC50,[29],14500 nM
COc1ccc(/C=N/NC(=O)/C=C/c2ccc(O)c(OC)c2)cc1,IC50,[30],40500 nM
same,IC50,[31],158000 nM
CN1CC(Cc2ccc(N(C)C)cc2[N+](=O)[O-])C(=NO)C(Cc2ccc(N(C)C)cc2[N+](=O)[O-])C1 (stereo unspecified),IC50,[32],80 nM
same,IC50,[33],70 nM
same,IC50,[34],50 nM
same,IC50,[35],100 nM
same,IC50,[36],80 nM
same,IC50,[37],90 nM
same,IC50,[38],90 nM
COc1cc(/C=C/C(=O)N/N=C/c2ccc(O)c(OC)c2)ccc1O,IC50,[30],43000 nM
same,IC50,[31],74600 nM
COc1ccc(/C=C/C(=O)/C(CNc2ccc(S(N)(=O)=O)cc2)=C(O)/C=C/c2ccc(OC)cc2)cc1,IC50,[39],11900 nM
same,IC50,[37],6250 nM
CN1CCC(Cc2ccc(/C=C/C(=O)/C=C/c3ccc(CN4CCN(C)CC4)c(O)c3)cc2O)CC1,IC50,[40],3000 nM
same,IC50,[41],3000 nM
same,IC50,[42],1800 nM
same,IC50,[43],3900 nM
COc1cc(/C=C2/C(=O)/C(=C/c3cc(OC)c(OC)c(OC)c3)c3ccccc32)cc(OC)c1OC,IC50,[44],640 nM
same,IC50,[28],980 nM
same,IC50,[45],9120 nM
same,IC50,[46],950 nM
same,IC50,[47],990 nM
COc1cc(/C=C2\CNC/C(=C\c3ccc(O)c(OC)c3)C2=O)ccc1O,IC50,[48],4300 nM
O=C(/C=C/c1c[nH]c2ccccc12)CC(=O)/C=C/c1c[nH]c2ccccc12,IC50,[49],25000 to 27000 nM
same,IC50,[50],7000 to 9000 nM
same,IC50,[51],32000 to 34000 nM
COc1cc(/C=C/C(=O)/C=C/c2ccccc2[N+](=O)[O-])ccc1O,IC50,[52],1600 nM
same,IC50,[53],4300 nM
same,IC50,[54],3500 nM
same,IC50,[16],2200 nM
same,IC50,[55],2700 nM
same,IC50,[29],2800 nM
same,IC50,[56],3700 nM
same,IC50,[57],3300 nM
